Measured values from PubChem BioAssay AID2060618 (Molecular Pharmacology Branch, DTP, NCI, 2025).
pIC50: −log10 of the molar value.

Test system: 454973-116-R2-J3-PDC spheroids, percent test/control viability
Experiment: Anticancer human tumor 454973-116-R2-J3-PDC patient-derived pancreatic carcinoma cell line growth inhibition [CLK]
Conditions: spheroids with HUVEC and MSC; for pIC50: curve of first compound; for viability, T/C: stronger effect = lower value
Outline: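 Patient-derived tumor cells grown as complex spheroids with HUVEC endothelial cells and mesenchymal stem cells, treated with drug combinations. Concentrations descend in half-log steps from near clinical Cmax, or from 10 microM if Cmax unknown.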

[1] = second compound 0.0316 µM, first compound 0.0316 µM
[2] = second compound 0.0316 µM, first compound 0.1 µM
[3] = second compound 0.0316 µM, first compound 0.316 µM
[4] = second compound 0.0316 µM, first compound 1 µM
[5] = second compound 0.0316 µM, first compound 3.16 µM
[6] = second compound 0.0316 µM, first compound 10 µM
[7] = second compound 0.1 µM, first compound 0.0316 µM
[8] = second compound 0.1 µM, first compound 0.1 µM
[9] = second compound 0.1 µM, first compound 0.316 µM
[10] = second compound 0.1 µM, first compound 1 µM
[11] = second compound 0.1 µM, first compound 3.16 µM
[12] = second compound 0.1 µM, first compound 10 µM
[13] = second compound 0.316 µM, first compound 0.0316 µM
[14] = second compound 0.316 µM, first compound 0.1 µM
[15] = second compound 0.316 µM, first compound 0.316 µM
[16] = second compound 0.316 µM, first compound 1 µM
[17] = second compound 0.316 µM, first compound 3.16 µM
[18] = second compound 0.316 µM, first compound 10 µM
[19] = second compound 1 µM, first compound 0.0316 µM
[20] = second compound 1 µM, first compound 0.1 µM
[21] = second compound 1 µM, first compound 0.316 µM
[22] = second compound 1 µM, first compound 1 µM
[23] = second compound 1 µM, first compound 3.16 µM
[24] = second compound 1 µM, first compound 10 µM
[25] = second compound 3.16 µM, first compound 0.0316 µM
[26] = second compound 3.16 µM, first compound 0.1 µM
[27] = second compound 3.16 µM, first compound 0.316 µM
[28] = second compound 3.16 µM, first compound 1 µM
[29] = second compound 3.16 µM, first compound 3.16 µM
[30] = second compound 3.16 µM, first compound 10 µM
[31] = second compound 10 µM, first compound 0.0316 µM
[32] = second compound 10 µM, first compound 0.1 µM
[33] = second compound 10 µM, first compound 0.316 µM
[34] = second compound 10 µM, first compound 1 µM
[35] = second compound 10 µM, first compound 3.16 µM
[36] = second compound 10 µM, first compound 10 µM
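Also: spheroids exposed to compounds for 7 days before readout.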

## CC(=O)O[C@H]1C(=O)[C@@]2(C)[C@H]([C@H](OC(=O)c3ccccc3)[C@]3(O)C[C@H](OC(=O)[C@H](O)[C@@H](NC(=O)c4ccccc4)c4ccccc4)C(C)=C1C3(C)C)[C@]1(OC(C)=O)CO[C@@H]1C[C@@H]2O + CN1CCN(c2cc(C(=O)Nc3cc4cc(-c5cnn(C)c5)ccc4cn3)ccn2)CC1
Second compound 0.0316 µM
  pIC50: > 7.50
Second compound 0.1 µM
  pIC50: > 7.50
Second compound 0.316 µM
  pIC50: > 7.50
Second compound 1 µM
  pIC50: > 7.50
Second compound 3.16 µM
  pIC50: > 7.50
Second compound 10 µM
  pIC50: > 7.50
[1]
  viability, T/C: 7.05%
[2]
  viability, T/C: 6.65%
[3]
  viability, T/C: 6.57%
[4]
  viability, T/C: 6.34%
[5]
  viability, T/C: 6.67%
[6]
  viability, T/C: 12.9%
[7]
  viability, T/C: 5.8%
[8]
  viability, T/C: 5.47%
[9]
  viability, T/C: 3.95%
[10]
  viability, T/C: 5.69%
[11]
  viability, T/C: 4.88%
[12]
  viability, T/C: 6.14%
[13]
  viability, T/C: 1.6%
[14]
  viability, T/C: 1.85%
[15]
  viability, T/C: 2.44%
[16]
  viability, T/C: 1.75%
[17]
  viability, T/C: 1.77%
[18]
  viability, T/C: 1.9%
[19]
  viability, T/C: 0.11%
[20]
  viability, T/C: 0.1%
[21]
  viability, T/C: 0.92%
[22]
  viability, T/C: 0.07%
[23]
  viability, T/C: 0.08%
[24]
  viability, T/C: 0.09%
[25]
  viability, T/C: 0.14%
[26]
  viability, T/C: 0.12%
[27]
  viability, T/C: 0.21%
[28]
  viability, T/C: 0.12%
[29]
  viability, T/C: 0.15%
[30]
  viability, T/C: 0.13%
[31]
  viability, T/C: 0.14%
[32]
  viability, T/C: 0.17%
[33]
  viability, T/C: 0.19%
[34]
  viability, T/C: 1.2%
[35]
  viability, T/C: 0.16%
[36]
  viability, T/C: 2.06%

## COc1ccc([C@@H](O)c2cc(-c3ncnc4cc(N5CCOCC5)ccc34)c(F)cc2Cl)nn1 + CN1CCN(c2cc(C(=O)Nc3cc4cc(-c5cnn(C)c5)ccc4cn3)ccn2)CC1
Second compound 0.0316 µM
  pIC50: < 5.00
Second compound 0.1 µM
  pIC50: 5.57
Second compound 0.316 µM
  pIC50: > 7.50
Second compound 1 µM
  pIC50: > 7.50
Second compound 3.16 µM
  pIC50: > 7.50
Second compound 10 µM
  pIC50: > 7.50
[1]
  viability, T/C: 93.8%
[2]
  viability, T/C: 107%
[3]
  viability, T/C: 101%
[4]
  viability, T/C: 90.8%
[5]
  viability, T/C: 73.5%
[6]
  viability, T/C: 54.9%
[7]
  viability, T/C: 74.8%
[8]
  viability, T/C: 79.1%
[9]
  viability, T/C: 71.5%
[10]
  viability, T/C: 66.5%
[11]
  viability, T/C: 47.4%
[12]
  viability, T/C: 28.6%
[13]
  viability, T/C: 1.76%
[14]
  viability, T/C: 1.85%
[15]
  viability, T/C: 2.44%
[16]
  viability, T/C: 1.05%
[17]
  viability, T/C: 1.4%
[18]
  viability, T/C: 2.15%
[19]
  viability, T/C: 0.11%
[20]
  viability, T/C: 0.11%
[21]
  viability, T/C: 2.22%
[22]
  viability, T/C: 0.08%
[23]
  viability, T/C: 0.07%
[24]
  viability, T/C: 0.06%
[25]
  viability, T/C: 0.09%
[26]
  viability, T/C: 0.15%
[27]
  viability, T/C: 0.16%
[28]
  viability, T/C: 0.14%
[29]
  viability, T/C: 0.11%
[30]
  viability, T/C: 0.72%
[31]
  viability, T/C: 2.12%
[32]
  viability, T/C: 0.13%
[33]
  viability, T/C: 0.29%
[34]
  viability, T/C: 0.16%
[35]
  viability, T/C: 0.99%
[36]
  viability, T/C: 0.16%
